Measured values reported in patent US10520507B2, “Methods for determining the risk of cardiovascular disease in a subject having a chronic viral infection through the measurement of lysophosphatidic acid” (CASE WESTERN RESERVE UNIVERSITY, priority 2014, dated 2019).

Legend:
[1] = target: ENPP2 (Mus musculus, UniProt Q9R1E6); parameters: species or system mice; conditions: in vivo, 30 mg/kg
[2] = tested on: CD3+ CD4+ and CD3+ CD8+ T cells in PBMC; test: LPA induced T cell activation assay (HLADR and CD38 co-expression, flow cytometry); format: cell-based, human; conditions: 100 uM LPA
Procedure: FIGS. 4(A-B) are a series of charts showing LPA dependent T cell activation. 500,000 PBMC from 5 healthy controls and 3 untreated HIV infected subjects were cultured overnight in the absence or presence of PHA, followed by 3 days of culture in media or 100 uM LPA. Proportion of CD3^+ CD4^+ (Panel A) and CD3^+ CD8^+ (Panel B) T cells that express of HLA DR and CD38 are shown. Statistical analysis shown for all 8 subjects combined. Comparisons between presence and absence of LPA in PHA pre-treated healthy control CD4 and CD8 activation were also significant (P=0.04, P=0.04).
To determine whether LPA can directly contribute to immune activation we have conducted LPA induced T cell activation assays using HLADR and CD38 co-expression as a readout (FIG. 4).

[3] = tested on: monocytes; test: In vitro monocyte activation by LPA; format: cell-based

Molecule	Reversal of deleterious effect on T cell function and neoantigen response [1]	T cell activation (HLADR and CD38 co-expression) ([2]; PBMC from healthy controls and untreated HIV infected subjects, 4 day culture, with or without PHA)	Activation in the CD4 compartment ([2]; regardless of pre-activation, more robust with PHA pre-activation)	Monocyte activation [3]
O=C(CCN1CCN(C(=O)OCc2cc(Cl)cc(Cl)c2)CC1)c1ccc2[nH]c(=O)oc2c1 [PF-8380]	at least partially reversed	–	–	–
lysophosphatidic acid [LPA]	–	enhanced T cell activation	Activation was observed	activated monocytes
